Measured values: patent US6770593B1, “Fertilizer” (Mandops (UK) Limited, priority 1999, dated 2004)

Assays:
Format in all cases: in vivo
[1] = test system: Powdery Mildew; test: Powdery mildew on spring barley, with chlormequat (Table E1); details: applied at 3 leaves stage, CCC 1.25 l/ha, ATS 1.25 l/ha, KS 20 g/ha
[2] = test system: Spring Barley; test: Growth of spring barley, with chlormequat (Table E1); details: applied at 3 leaves stage, CCC 1.25 l/ha, ATS 1.25 l/ha, KS 20 g/ha
[3] = test system: Powdery Mildew; test: Powdery mildew on spring barley, with chlormequat at T1 and T2 (Table E2); details: applied at T1 (3 leaves stage) & T2 (prior to start of stem extension), CCC 0.8 l/ha, ATS 0.8 l/ha, KS 20 g/ha
[4] = test system: Spring Barley; test: Tillers of spring barley, with chlormequat at T1 and T2 (Table E2); details: applied at T1 (3 leaves stage) & T2 (prior to start of stem extension), CCC 0.8 l/ha, ATS 0.8 l/ha, KS 20 g/ha

## C[N+](C)(C)CCCl.[Cl-] [CCC, Chlormequat]
[1]
  Powdery Mildew (%) at +15 days: 15%
[2]
  Above Ground Dry Weight (g) Total of 10 plants: 3.7 g
  Above Ground Fresh Weight (g) Total of 10 plants: 34.0 g
  Amount of Rooting (0-9) Mean of 10 plants: 5.5
[3]
  Powdery Mildew (%) at +12 days: 8%
  Powdery Mildew (%) at +15 days: 8%
  Powdery Mildew (%) at +18 days: 10%
[4]
  Number of Tillers Initiated per Plant (mean of 10 plants): 3.5
